According to US8148391B2 (Cephalon, Inc., priority 2006, dated 2012):
Where two headings read alike, the source gives them in different places.

How the values were obtained:
[1] = biological target: T1, baculovirus-expressed ALK (Homo sapiens, UniProt Q9UM73); test: ALK Kinase Assay (ELISA-type, time-resolved fluorescence); format: biochemical
T1 construct: host or cells: baculovirus expression system
Procedure, shortened: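 Wells were coated with phospholipase C-γ at 10 μg/mL in Tris-buffered saline. Adding 30 ng/ml enzyme started the reaction, which ran at 37° C for 15 minutes before Eu-N1 PT66 antibody detection. Percent inhibition versus log10 concentration gave IC50 by variable-slope fit.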

[2] = biological target: T2, c-Met (cytoplasmic domain) (Homo sapiens, UniProt P08581); test: c-Met Kinase Assay (same methods as for ALK, with modifications); format: biochemical
T2 construct: 10 ng/mL c-Met (cytoplasmic domain, Invitrogen Corporation #PV3143); purchased Invitrogen Corporation PV3143
T2 sequence (P08581 956-1390 limits assumed): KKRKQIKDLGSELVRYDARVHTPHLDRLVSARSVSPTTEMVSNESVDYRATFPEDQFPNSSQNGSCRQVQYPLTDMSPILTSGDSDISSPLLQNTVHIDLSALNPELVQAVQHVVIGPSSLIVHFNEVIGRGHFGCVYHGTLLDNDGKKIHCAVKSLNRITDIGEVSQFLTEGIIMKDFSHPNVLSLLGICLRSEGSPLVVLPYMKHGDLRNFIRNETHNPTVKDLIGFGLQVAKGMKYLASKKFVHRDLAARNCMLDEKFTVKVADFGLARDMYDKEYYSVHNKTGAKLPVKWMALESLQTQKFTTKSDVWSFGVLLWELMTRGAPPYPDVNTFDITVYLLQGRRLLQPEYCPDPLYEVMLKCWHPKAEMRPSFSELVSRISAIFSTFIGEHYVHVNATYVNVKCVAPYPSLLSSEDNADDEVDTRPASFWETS
Procedure, shortened: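 Steps: coat wells with PLC-γ (10 μg/mL, Tris-buffered saline); add 10 ng/mL c-Met cytoplasmic domain to initiate; incubate 15 min, 37° C; detect phosphoproduct via Eu-N1 PT66 antibody.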

[3] = 1 μM ATP (Km level), read-out: ALK Activity (ALK Kinase Inhibition, IC50)
[4] = 1 μM ATP (Km level), read-out: cMet Activity (c-Met Kinase Inhibition, IC50)
[5] = 1 μM ATP (Km level), 30 ng/ml ALK, 37° C., 15 minutes, read-out: ALK Activity (ALK kinase inhibition, IC50 class)
[6] = 1 μM ATP (Km level), 10 ng/mL c-Met, read-out: cMet Activity (c-Met kinase inhibition, IC50 class)
[7] = ALK kinase inhibition, 1 μM ATP, read-out: ALK Activity
[8] = c-Met kinase inhibition, 1 μM ATP, read-out: cMet Activity
[9] = ALK kinase inhibition, 1 μM ATP (Km level), read-out: ALK Activity
[10] = c-Met kinase inhibition, 1 μM ATP (Km level), read-out: cMet Activity

T1 sequence (Q9UM73 19-1620): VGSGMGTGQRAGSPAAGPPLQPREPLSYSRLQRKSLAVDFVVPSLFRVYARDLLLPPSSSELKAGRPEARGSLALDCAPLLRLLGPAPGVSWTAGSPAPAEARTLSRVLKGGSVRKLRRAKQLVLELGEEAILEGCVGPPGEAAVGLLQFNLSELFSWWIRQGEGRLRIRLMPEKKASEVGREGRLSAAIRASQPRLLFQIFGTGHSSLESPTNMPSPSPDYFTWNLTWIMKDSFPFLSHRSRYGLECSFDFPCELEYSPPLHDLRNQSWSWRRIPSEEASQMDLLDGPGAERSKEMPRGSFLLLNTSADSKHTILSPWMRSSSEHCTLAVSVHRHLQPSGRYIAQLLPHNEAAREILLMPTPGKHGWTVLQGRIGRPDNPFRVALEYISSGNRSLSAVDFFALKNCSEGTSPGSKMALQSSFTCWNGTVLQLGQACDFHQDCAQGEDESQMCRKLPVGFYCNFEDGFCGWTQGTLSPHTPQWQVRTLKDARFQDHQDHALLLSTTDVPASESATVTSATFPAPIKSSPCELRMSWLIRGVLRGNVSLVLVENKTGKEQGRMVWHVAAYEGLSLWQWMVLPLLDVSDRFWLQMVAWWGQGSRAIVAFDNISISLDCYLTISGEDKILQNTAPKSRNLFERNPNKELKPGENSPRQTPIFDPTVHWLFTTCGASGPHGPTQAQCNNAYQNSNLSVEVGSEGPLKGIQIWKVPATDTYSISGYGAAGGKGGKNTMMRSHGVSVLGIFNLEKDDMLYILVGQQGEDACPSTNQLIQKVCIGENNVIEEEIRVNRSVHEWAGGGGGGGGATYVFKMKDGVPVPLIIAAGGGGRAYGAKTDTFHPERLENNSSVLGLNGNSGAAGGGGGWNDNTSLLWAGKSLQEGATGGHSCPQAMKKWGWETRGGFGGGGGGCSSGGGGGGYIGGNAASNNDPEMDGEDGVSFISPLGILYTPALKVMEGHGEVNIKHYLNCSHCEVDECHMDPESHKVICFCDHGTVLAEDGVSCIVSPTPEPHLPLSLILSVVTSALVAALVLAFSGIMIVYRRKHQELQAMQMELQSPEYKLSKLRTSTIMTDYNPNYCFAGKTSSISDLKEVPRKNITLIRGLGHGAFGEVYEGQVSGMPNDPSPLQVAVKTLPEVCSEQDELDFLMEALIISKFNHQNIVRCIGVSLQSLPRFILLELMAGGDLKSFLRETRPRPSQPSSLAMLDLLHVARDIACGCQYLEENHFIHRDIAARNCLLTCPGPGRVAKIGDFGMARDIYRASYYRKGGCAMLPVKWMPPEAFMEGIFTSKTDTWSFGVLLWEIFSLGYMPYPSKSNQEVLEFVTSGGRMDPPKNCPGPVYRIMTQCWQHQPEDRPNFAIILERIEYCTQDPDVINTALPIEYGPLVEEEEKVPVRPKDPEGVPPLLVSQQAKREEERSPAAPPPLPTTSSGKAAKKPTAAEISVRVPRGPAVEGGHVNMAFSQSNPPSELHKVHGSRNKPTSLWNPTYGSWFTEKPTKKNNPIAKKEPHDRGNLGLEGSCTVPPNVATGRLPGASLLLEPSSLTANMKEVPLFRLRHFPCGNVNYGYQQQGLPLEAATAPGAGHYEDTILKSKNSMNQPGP

CN1CCN(C2CCc3ccc(Nc4ncc(Cl)c(N[C@@H]5CCCC[C@H]5NS(C)(=O)=O)n4)cc3CC2)CC1 (stereo partly drawn) [Example 888, N-((1R,2R)-2-{5-Chloro-2-[7-(4-methyl-piperazin-1-yl)-6,7,8,9-tetrahydro-5H-benzocyclohepten-2-ylamino]-pyrimidin-4-ylamino}-cyclohexyl)-methanesulfonamide]
IC50 [1, 3]: < 100 nM
IC50 [2, 4]: 1000 to 10000 nM

NC(=O)[C@@H]1[C@H](Nc2nc(Nc3ccc4c(c3)CCC(N3CCOCC3)CC4)ncc2Cl)[C@H]2C=C[C@@H]1C2 (single isomer, unassigned) [Example 682]
IC50 [1, 3]: < 100 nM
IC50 [2, 4]: 100 to 1000 nM

CN(CCC#N)c1cccc(F)c1Nc1nc(Nc2ccc3c(c2)C(C)(C)CCC(=O)N3)ncc1Cl [Example 1266, 3-({2-[5-Chloro-2-(5,5-dimethyl-2-oxo-2,3,4,5-tetrahydro-1H-1-benzazepin-7-ylamino)-pyrimidin-4-ylamino]-3-fluoro-phenyl}-methyl-amino)-propionitrile]
IC50 [1, 5]: < 100 nM
IC50 [2, 6]: 1000 to 10000 nM

5-Chloro-N*4*-(2-ethyl-4-morpholin-4-yl-phenyl)-N*2*-[7-(2,2,2-trifluoro-ethylamino)-6,7,8,9-tetrahydro-5H-benzocyclohepten-2-yl]-pyrimidine-2,4-diamine [Example 652]
IC50 [1, 3]: < 100 nM
IC50 [2, 4]: > 10000 nM

C#CCNC(=O)c1cccc(F)c1Nc1nc(Nc2ccc3c(c2)OCCCN3C(=O)CN2CCCC2)ncc1Cl [Example 1716, 2-{5-Chloro-2-[9-(2-pyrrolidin-1-yl-acetyl)-6,7,8,9-tetrahydro-5-oxa-9-aza-benzocyclohepten-3-ylamino]-pyrimidin-4-ylamino}-3-fluoro-N-prop-2-ynyl-benzamide]
IC50 [1, 7]: 100 to 1000 nM
IC50 [2, 8]: < 100 nM

CNC(=O)c1ccccc1Nc1nc(Nc2ccc3c(c2Br)C2CCC3CN(C(=O)C(F)(F)F)C2)ncc1Cl (centres unmarked) [Example 297, 2-{2-[3-Bromo-10-(2,2,2-trifluoro-acetyl)-10-aza-tricyclo[6.3.2.0*2,7*]trideca-2,4,6-trien-4-ylamino]-5-chloro-pyrimidin-4-ylamino}-N-methyl-benzamide]
IC50 [1, 9]: 100 to 1000 nM
IC50 [2, 10]: > 10000 nM

CCN1CC(N2CCOCC2)COc2ccc(Nc3ncc(Cl)c(Nc4c(F)cccc4C(=O)NC)n3)cc21 (centres unmarked) [Example 1722, 2-[5-Chloro-2-(9-ethyl-7-morpholin-4-yl-6,7,8,9-tetrahydro-5-oxa-9-aza-benzocyclohepten-2-ylamino)-pyrimidin-4-ylamino]-3-fluoro-N-methyl-benzamide]
IC50 [1, 7]: < 100 nM
IC50 [2, 8]: < 100 nM

7-[5-Chloro-4-(2-methoxy-4-morpholin-4-yl-phenylamino)-pyrimidin-2-ylamino]-1-ethyl-5,5-dimethyl-1,3,4,5-tetrahydro-benzo[b]azepin-2-one [Example 393]
IC50 [1, 9]: < 100 nM
IC50 [2, 10]: > 10000 nM

CNC(=O)c1cccc(F)c1Nc1nc(Nc2ccc3c(c2)NC(=O)C(N2CCOCC2)CC3(C)C)ncc1Cl (centres unmarked) [Example 1288, 2-[5-Chloro-2-(5,5-dimethyl-3-morpholin-4-yl-2-oxo-2,3,4,5-tetrahydro-1H-1-benzazepin-8-ylamino)-pyrimidin-4-ylamino]-3-fluoro-N-methyl-benzamide]
IC50 [1, 5]: 100 to 1000 nM
IC50 [2, 6]: < 100 nM

COc1cccc(C(=O)NCC#N)c1Nc1nc(Nc2ccc3c(c2)C(C)(C)CCC(=O)N3)ncc1Cl [Example 1064, 2-[5-Chloro-2-(5,5-dimethyl-2-oxo-2,3,4,5-tetrahydro-1H-benzo[b]azepin-7-ylamino)-pyrimidin-4-ylamino]-N-cyanomethyl-3-methoxy-benzamide]
IC50 [1, 5]: 1000 to 10000 nM
IC50 [2, 6]: 1000 to 10000 nM

COc1cccnc1-c1ccccc1Nc1nc(Nc2ccc3c(c2)CCC(O)CC3)ncc1Cl (centres unmarked) [Example 1019, 2-{5-Chloro-4-[2-(3-methoxy-pyridin-2-yl)-phenylamino]-pyrimidin-2-ylamino}-6,7,8,9-tetrahydro-5H-benzocyclohepten-7-ol]
IC50 [1, 5]: 100 to 1000 nM
IC50 [2, 6]: 100 to 1000 nM

CN1C(=O)CCC(C)(C)c2cc(Nc3ncc(Cl)c(Nc4ccccc4S(C)(=O)=O)n3)ccc21 [Example 1250, 7-[5-Chloro-4-(2-methanesulfonyl-phenylamino)-pyrimidin-2-ylamino]-1,5,5-trimethyl-1,3,4,5-tetrahydro-1-benzazepin-2-one]
IC50 [1, 5]: < 100 nM
IC50 [2, 6]: 100 to 1000 nM

COc1cc2c(cc1Nc1ncc(Cl)c(Nc3ccccc3S(=O)(=O)N3CC[C@H](C)C3)n1)CCN(CCO)CC2 [Example 855, 2-(7-{5-Chloro-4-[2-((S)-3-methyl-pyrrolidine-1-sulfonyl)-phenylamino]-pyrimidin-2-ylamino}-8-methoxy-1,2,4,5-tetrahydro-benzo[d]azepin-3-yl)-ethanol]
IC50 [1, 3]: < 100 nM
IC50 [2, 4]: 100 to 1000 nM

CNC(=O)c1cccc(F)c1Nc1nc(Nc2ccc3c(c2)CCN(C[C@@H](OC)C(F)(F)F)CC3)ncc1Cl [Example 1361, 2-{5-Chloro-2-[3-((R)-3,3,3-trifluoro-2-methoxy-propyl)-2,3,4,5-tetrahydro-1H-benzo[d]azepin-7-ylamino]-pyrimidin-4-ylamino}-3-fluoro-N-methyl-benzamide]
IC50 [1, 5]: < 100 nM
IC50 [2, 6]: < 100 nM

C=CCOc1cccc(F)c1Nc1nc(Nc2ccc3c(c2)CCOC(=O)N3C)ncc1Cl [Example 1780, 2-[4-(2-Allyloxy-6-fluoro-phenylamino)-5-chloro-pyrimidin-2-ylamino]-5-methyl-8,9-dihydro-5H-7-oxa-5-aza-benzocyclohepten-6-one]
IC50 [1, 7]: < 100 nM
IC50 [2, 8]: < 100 nM

CCN1CCCOc2ccc(Nc3ncc(Cl)c(Nc4c(F)cc(-c5cnn(C)c5)cc4C(=O)NC)n3)cc21 [Example 1425, 2-[5-Chloro-2-(9-ethyl-6,7,8,9-tetrahydro-5-oxa-9-aza-benzocyclohepten-2-ylamino)-pyrimidin-4-ylamino]-3-fluoro-N-methyl-5-(1-methyl-1H-pyrazol-4-yl)-benzamide]
IC50 [1, 5]: < 100 nM
IC50 [2, 6]: < 100 nM

COc1cc2c(cc1Nc1ncc(Cl)c(Nc3ccccc3S(=O)(=O)N3CCCC3)n1)CCN(Cc1ncco1)CC2 [Example 1191, 5-Chloro-N*2*-(8-methoxy-3-oxazol-2-ylmethyl-2,3,4,5-tetrahydro-1H-benzo[d]azepin-7-yl)-N*4*-[2-(pyrrolidine-1-sulfonyl)-phenyl]-pyrimidine-2,4-diamine]
IC50 [1, 5]: < 100 nM
IC50 [2, 6]: 1000 to 10000 nM

COCCN1CCc2ccc(Nc3ncc(Cl)c(Nc4ccccc4-c4nccn4CCOC)n3)cc2CC1 [Example 981, 5-Chloro-N*4*-{2-[1-(2-methoxy-ethyl)-1H-imidazol-2-yl]-phenyl}-N*2*-[3-(2-methoxy-ethyl)-2,3,4,5-tetrahydro-1H-benzo[d]azepin-7-yl]-pyrimidine-2,4-diamine]
IC50 [1, 3]: 100 to 1000 nM
IC50 [2, 4]: 1000 to 10000 nM

COc1cc2c(cc1Nc1ncc(Cl)c(Nc3ccc(N4CCOCC4)cc3OC)n1)CCOC(=O)N2C [Example 1506, 2-[5-Chloro-4-(2-methoxy-4-morpholin-4-yl-phenylamino)-pyrimidin-2-ylamino]-3-methoxy-5-methyl-8,9-dihydro-5H-7-oxa-5-aza-benzocyclohepten-6-one]
IC50 [1, 7]: < 100 nM
IC50 [2, 8]: > 10000 nM

COc1cc(N2CCOCC2)ccc1Nc1nc(Nc2ccc3c(c2)CCC(F)(F)CC3)ncc1Cl [Example 182, 5-Chloro-N*2*-(7,7-difluoro-6,7,8,9-tetrahydro-5H-benzocyclohepten-2-yl)-N*4*-(2-methoxy-4-morpholin-4-yl-phenyl)-pyrimidine-2,4-diamine]
IC50 [1, 9]: 100 to 1000 nM
IC50 [2, 10]: > 10000 nM

2-[5-Chloro-2-(1,4-dimethyl-5-oxo-2,3,4,5-tetrahydro-1H-benzo[e][1,4]diazepin-8-ylamino)-pyrimidin-4-ylamino]-N-methylbenzamide [Example 416]
IC50 [1, 9]: < 100 nM
IC50 [2, 10]: < 100 nM

2-[5-Chloro-2-(6-methoxy-2-oxo-2,3,4,5-tetrahydro-1H-benzo[b]azepin-7-ylamino)-pyrimidin-4-ylamino]-N-methyl-benzamide [Example 3]
IC50 [1, 9]: < 100 nM
IC50 [2, 10]: 1000 to 10000 nM

CCN1CCN(CC)c2cc(Nc3ncc(Cl)c(N[C@@H]4CCCC[C@H]4NS(C)(=O)=O)n3)c(OC)cc2C1 [Example 1456, N-{(1R,2R)-2-[5-Chloro-2-(1,4-diethyl-7-methoxy-2,3,4,5-tetrahydro-1H-benzo[e][1,4]diazepin-8-ylamino)-pyrimidin-4-ylamino]-cyclohexyl}-methanesulfonamide]
IC50 [1, 7]: < 100 nM
IC50 [2, 8]: > 10000 nM

COc1cc(N2CCOCC2)ccc1Nc1nc(Nc2ccc3c(c2)N(C(C)C)CCCC3(C)C)ncc1Cl [Example 1629, 5-Chloro-N*2*-(1-isopropyl-5,5-dimethyl-2,3,4,5-tetrahydro-1H-benzo[b]azepin-8-yl)-N*4*-(2-methoxy-4-morpholin-4-yl-phenyl)-pyrimidine-2,4-diamine]
IC50 [1, 7]: 100 to 1000 nM
IC50 [2, 8]: > 10000 nM

CCN1C(=O)CCCc2ccc(Nc3ncc(Cl)c(Nc4cccc(CCC#N)c4)n3)cc21 [Example 1223, 3-{3-[5-Chloro-2-(1-ethyl-2-oxo-2,3,4,5-tetrahydro-1H-1-benzazepin-8-ylamino)-pyrimidin-4-ylamino]-phenyl}-propionitrile]
IC50 [1, 5]: 100 to 1000 nM
IC50 [2, 6]: 100 to 1000 nM
